According to patent publication US20250144067A1, “PERSONALIZED STARVATION THERAPY FOR CANCER” (Faeth Therapeutics, Inc., priority 2021, published 2025):
Structures can show the parent of a compound that is named as a salt.

Columns and labels:
[1] = tested on: NCI-H292 lung cancer cells; assay: FDA drug screening, complete media vs cholesterol-free media with simvastatin (TABLE 2); format: cell-based, human; conditions: for Cholesterol-free media + simvastatin (0.04 μM) / Complete Media: NCI-H292 cells
[2] = tested on: NCI-H292 lung cancer cells; assay: FDA drug screening, complete media vs cholesterol-free media without statin (TABLE 1); format: cell-based, human
[3] = cholesterol-free media with simvastatin 0.04 μM, FDA drug library screen (TABLE 2)
[4] = complete media, FDA drug library screen (TABLE 2)
[5] = complete media minus cholesterol-free media + simvastatin (0.04 μM), >0 enhanced anti-cancer activity, about 0 neutral, <0 antagonist
[6] = Complete minus Cholesterol-free, >0 enhanced anti-cancer activity, about 0 neutral, <0 antagonist
[7] = NCI-H292 cells, cholesterol-free media without statin, FDA drug library screen
[8] = NCI-H292 cells, complete media, FDA drug library screen
[9] = FDA library drug in cholesterol-free media with simvastatin 0.04 μM
[10] = FDA library drug in complete media
[11] = complete media vs cholesterol-free media + simvastatin (0.04 μM), >0 enhanced anti-cancer activity, about 0 neutral, <0 antagonist
[12] = FDA drug library screen, cholesterol-free media with simvastatin 0.04 μM
[13] = FDA drug library screen, complete media
[14] = NCI-H292 cells, cholesterol-free media without statin
[15] = Complete minus Cholesterol-free, greater than 0 enhanced anti-cancer activity, about 0 neutral, below 0 antagonist
[16] = NCI-H292 cells, FDA drug library screen, cholesterol-free media without statin
[17] = NCI-H292 cells, FDA drug library screen, complete media
[18] = Complete minus Cholesterol-free, greater than 0 enhanced anti-cancer activity, about 0 neutral, below 0 antagonists
[19] = NCI-H292 cells in cholesterol-free media without statin
[20] = NCI-H292 cells in complete media
[21] = cholesterol-free media with simvastatin 0.04 μM, cell growth value in FDA drug screen
[22] = complete media, cell growth value in FDA drug screen
[23] = complete media minus cholesterol-free media + simvastatin, >0 enhanced anti-cancer activity, about 0 neutral, <0 antagonist
[24] = complete media vs cholesterol-free media + simvastatin (0.04 μM), […]
[25] = Complete minus Cholesterol-free, […]
[26] = drug in cholesterol-free media with simvastatin 0.04 μM
[27] = complete vs cholesterol-free media, greater than 0 enhanced anti-cancer activity, about 0 neutral, below 0 antagonists
[28] = complete vs cholesterol-free media, >0 enhanced anti-cancer activity, about 0 neutral, <0 antagonist

SMILES: C1N2CN3CN1CN(C2)C3.O=C(O)CNC(=O)c1ccccc1 [Methenamine (hippurate)]
- Cholesterol-free media + simvastatin (0.04 μM) [1, 3]: 0.3855
- Complete Media [1, 4]: 0.3286
- Difference [1, 5]: −0.06
- Difference [2, 6]: 0.05
- Cholesterol-free [2, 7]: 0.09528
- Complete [2, 8]: 0.1431

SMILES: COc1cccc(OC)c1C(=O)N[C@@H]1C(=O)N2[C@@H]1SC(C)(C)[C@@H]2C(=O)O [Methicillin (sodium salt)]
- Cholesterol-free media + simvastatin (0.04 μM) [1, 9]: 1.829
- Complete Media [1, 10]: 1.406
- Difference [1, 11]: −0.42
- Difference [2, 6]: −0.06
- Cholesterol-free [2, 7]: 1.114
- Complete [2, 8]: 1.051

SMILES: Cn1cc[nH]c1=S [Methimazole]
- Cholesterol-free media + simvastatin (0.04 μM) [1, 12]: 1.144
- Complete Media [1, 13]: 1.001
- Difference [1, 11]: −0.14
- Difference [2, 6]: −0.20
- Cholesterol-free [2, 14]: 1.024
- Complete ([2]; NCI-H292 cells, complete media): 0.8245

SMILES: COc1ccccc1OCC(O)COC(N)=O (centres unmarked) [Methocarbamol]
- Cholesterol-free media + simvastatin (0.04 μM) [1, 9]: 1.33
- Complete Media [1, 10]: 0.8727
- Difference [1, 11]: −0.46
- Difference [2, 6]: −0.29
- Cholesterol-free [2, 14]: 1.357
- Complete ([2]; NCI-H292 cells, complete media): 1.063

SMILES: CN(Cc1cnc2nc(N)nc(N)c2n1)c1ccc(C(=O)N[C@@H](CCC(=O)[O-])C(=O)[O-])cc1.[Na+].[Na+] [Methotrexate (disodium)]
- Cholesterol-free media + simvastatin (0.04 μM) [1, 3]: 0.2727
- Complete Media [1, 4]: 0.2318
- Difference [1, 5]: −0.04
- Difference [2, 6]: −0.05
- Cholesterol-free [2, 7]: 0.06701
- Complete [2, 8]: 0.01682

SMILES: CN(Cc1cnc2nc(N)nc(N)c2n1)c1ccc(C(=O)N[C@@H](CCC(=O)O)C(=O)O)cc1 [Methotrexate]
- Cholesterol-free media + simvastatin (0.04 μM) [1, 3]: 0.1275
- Complete Media [1, 4]: 0.1078
- Difference [1, 5]: −0.02
- Difference [2, 15]: −0.13
- Cholesterol-free [2, 16]: 0.225
- Complete [2, 17]: 0.09944

SMILES: COc1c2occc2cc2ccc(=O)oc12 [Methoxsalen]
- Cholesterol-free media + simvastatin (0.04 μM) [1, 9]: 1.34
- Complete Media [1, 10]: 0.9575
- Difference [1, 11]: −0.38
- Difference [2, 18]: −0.72
- Cholesterol-free [2, 19]: 1.514
- Complete [2, 20]: 0.7902

SMILES: CN1C(CCl)Nc2cc(Cl)c(S(N)(=O)=O)cc2S1(=O)=O (centres unmarked) [Methyclothiazide]
- Cholesterol-free media + simvastatin (0.04 μM) [1, 3]: 1.147
- Complete Media [1, 4]: 1.081
- Difference [1, 5]: −0.07
- Difference [2, 6]: −0.24
- Cholesterol-free [2, 14]: 1.096
- Complete ([2]; NCI-H292 cells, complete media): 0.856

SMILES: COC(=O)c1ccccc1O [Methyl Salicylate]
- Cholesterol-free media + simvastatin (0.04 μM) [1, 21]: 0.8236
- Complete Media [1, 22]: 0.8959
- Difference [1, 23]: 0.07
- Difference [2, 6]: −0.24
- Cholesterol-free [2, 14]: 0.9648
- Complete ([2]; NCI-H292 cells, complete media): 0.722

SMILES: COC(=O)CCC(=O)CN [Methyl aminolevulinate (hydrochloride)]
- Cholesterol-free media + simvastatin (0.04 μM) [1, 12]: 1.272
- Complete Media [1, 13]: 1.627
- Difference [1, 23]: 0.35
- Difference [2, 18]: −0.59
- Cholesterol-free [2, 19]: 1.473
- Complete [2, 20]: 0.886

SMILES: CC[N+](C)(CC)CCOC(=O)C(O)(c1ccccc1)c1ccccc1 [Methylbenactyzium Bromide]
- Cholesterol-free media + simvastatin (0.04 μM) [1, 9]: 1.651
- Complete Media [1, 10]: 1.081
- Difference [1, 24]: −0.57
- Difference [2, 25]: 0.02
- Cholesterol-free [2, 7]: 0.9201
- Complete [2, 8]: 0.945

SMILES: C/C1=C2/[N-][C@H]([C@H](CC(N)=O)[C@@]2(C)CCC(=O)NC[C@@H](C)OP(=O)([O-])O[C@H]2[C@@H](O)[C@@H](n3cnc4cc(C)c(C)cc43)O[C@@H]2CO)[C@]2(C)N=C(/C(C)=C3N=C(/C=C4N=C1[C@@H](CCC(N)=O)C\4(C)C)[C@@H](CCC(N)=O)[C@]\3(C)CC(N)=O)[C@@H](CCC(N)=O)[C@]2(C)CC(N)=O.[CH3-].[Co+3] [Methylcobalamin]
- Cholesterol-free media + simvastatin (0.04 μM) [1, 9]: 1.749
- Complete Media [1, 10]: 0.8589
- Difference [1, 24]: −0.89
- Difference [2, 25]: −0.18
- Cholesterol-free [2, 16]: 1.021
- Complete [2, 17]: 0.8435

SMILES: CN(C)c1ccc2nc3ccc(=[N+](C)C)cc-3sc2c1 [Methylene blue (trihydrate)]
- Cholesterol-free media + simvastatin (0.04 μM) [1, 21]: 0.3366
- Complete Media [1, 22]: 0.39
- Difference [1, 23]: 0.05
- Difference [2, 15]: −0.18
- Cholesterol-free [2, 16]: 0.4339
- Complete [2, 17]: 0.2574

SMILES: C[C@H]1C[C@@H]2[C@H]([C@@H](O)C[C@@]3(C)[C@H]2CC[C@]3(O)C(=O)COC(=O)CCC(=O)O)[C@@]2(C)C=CC(=O)C=C12 [Methylprednisolone succinate]
- Cholesterol-free media + simvastatin (0.04 μM) [1, 26]: 0.9151
- Complete Media ([1]; drug in complete media): 0.7051
- Difference [1, 11]: −0.21
- Cholesterol-free [2, 14]: 0.8243
- Complete ([2]; NCI-H292 cells, complete media): 0.4661
- Difference [2, 27]: −0.36

SMILES: C[C@H]1C[C@@H]2[C@H]([C@@H](O)C[C@@]3(C)[C@H]2CC[C@]3(O)C(=O)CO)[C@@]2(C)C=CC(=O)C=C12 [Methylprednisolone]
- Cholesterol-free media + simvastatin (0.04 μM) [1, 12]: 1.016
- Complete Media [1, 13]: 1.212
- Difference [1, 23]: 0.20
- Difference [2, 6]: −0.22
- Cholesterol-free [2, 14]: 0.8356
- Complete ([2]; NCI-H292 cells, complete media): 0.6178

SMILES: Cc1cc(=O)[nH]c(=S)[nH]1 [Methylthiouracil]
- Cholesterol-free media + simvastatin (0.04 μM) [1, 26]: 1.089
- Complete Media ([1]; drug in complete media): 0.882
- Difference [1, 11]: −0.21
- Cholesterol-free [2, 14]: 1.055
- Complete ([2]; NCI-H292 cells, complete media): 0.7083
- Difference [2, 27]: −0.35

SMILES: Cc1cc2c(cc1S(N)(=O)=O)S(=O)(=O)CCC2 [Meticrane]
- Cholesterol-free media + simvastatin (0.04 μM) [1, 9]: 1.393
- Complete Media [1, 10]: 0.8316
- Difference [1, 11]: −0.56
- Difference [2, 6]: −0.25
- Cholesterol-free [2, 14]: 1.363
- Complete ([2]; NCI-H292 cells, complete media): 1.109

SMILES: CC(=O)Oc1c(C)cc(OCC(O)CNC(C)C)c(C)c1C (centres unmarked) [Metipranolol hydrochloride]
- Cholesterol-free media + simvastatin (0.04 μM) [1, 21]: 0.8039
- Complete Media [1, 22]: 0.8617
- Difference [1, 23]: 0.06
- Difference [2, 6]: 0.05
- Cholesterol-free [2, 7]: 0.8441
- Complete [2, 8]: 0.893

SMILES: CN1CCCC(CC2c3ccccc3Sc3ccccc32)C1 (centres unmarked) [Metixene hydrochloride hydrate]
- Cholesterol-free media + simvastatin (0.04 μM) [1, 26]: 1.206
- Complete Media ([1]; drug in complete media): 1.036
- Difference [1, 11]: −0.17
- Difference [2, 6]: −0.25
- Cholesterol-free [2, 14]: 1.293
- Complete ([2]; NCI-H292 cells, complete media): 1.044

SMILES: Cc1ccccc1N1C(=O)c2cc(S(N)(=O)=O)c(Cl)cc2NC1C (centres unmarked) [Metolazone]
- Cholesterol-free media + simvastatin (0.04 μM) [1, 12]: 1.129
- Complete Media [1, 13]: 0.9754
- Difference [1, 11]: −0.15
- Difference [2, 18]: −0.62
- Cholesterol-free [2, 19]: 1.469
- Complete [2, 20]: 0.8441

SMILES: Cc1ncc([N+](=O)[O-])n1CCOC(=O)c1ccccc1 [Metronidazole Benzoate]
- Cholesterol-free media + simvastatin (0.04 μM) [1, 12]: 1.104
- Complete Media [1, 13]: 1
- Difference [1, 11]: −0.10
- Difference [2, 6]: −0.30
- Cholesterol-free [2, 14]: 1.298
- Complete ([2]; NCI-H292 cells, complete media): 1.001

SMILES: Cc1ncc([N+](=O)[O-])n1CCO [Metronidazole]
- Cholesterol-free media + simvastatin (0.04 μM) [1, 9]: 1.741
- Complete Media [1, 10]: 1.475
- Difference [1, 11]: −0.27
- Difference [2, 6]: −0.03
- Cholesterol-free [2, 7]: 1.006
- Complete [2, 8]: 0.9754

SMILES: CC(C)(C(=O)c1cccnc1)c1cccnc1 [Metyrapone]
- Cholesterol-free media + simvastatin (0.04 μM) [1, 21]: 0.9563
- Complete Media [1, 22]: 1.066
- Difference [1, 23]: 0.11
- Cholesterol-free [2, 14]: 1.096
- Complete ([2]; NCI-H292 cells, complete media): 0.7386
- Difference [2, 27]: −0.36

SMILES: C[C@](N)(Cc1ccc(O)cc1)C(=O)O [Metyrosine]
- Cholesterol-free media + simvastatin (0.04 μM) [1, 3]: 0.9769
- Complete Media [1, 4]: 0.9769
- Difference [1, 5]: 0.00
- Difference [2, 15]: −0.10
- Cholesterol-free [2, 16]: 1.606
- Complete [2, 17]: 1.504

SMILES: Cc1cccc(C)c1OCC(C)N (centres unmarked) [Mexiletine (hydrochloride)]
- Cholesterol-free media + simvastatin (0.04 μM) [1, 12]: 1.005
- Complete Media [1, 13]: 0.8858
- Difference [1, 11]: −0.12
- Difference [2, 6]: −0.20
- Cholesterol-free [2, 14]: 1.086
- Complete ([2]; NCI-H292 cells, complete media): 0.8848

SMILES: CC1(C)S[C@@H]2[C@H](NC(=O)[C@H](NC(=O)N3CCN(S(C)(=O)=O)C3=O)c3ccccc3)C(=O)N2[C@H]1C(=O)[O-].[Na+] [Mezlocillin (sodium)]
- Cholesterol-free media + simvastatin (0.04 μM) [1, 26]: 1.179
- Complete Media ([1]; drug in complete media): 0.9159
- Difference [1, 11]: −0.26
- Cholesterol-free [2, 7]: 0.8225
- Complete [2, 8]: 1.264
- Difference [2, 28]: 0.44

SMILES: CN1CCN2c3ccccc3Cc3ccccc3C2C1 (centres unmarked) [Mianserin (hydrochloride)]
- Cholesterol-free media + simvastatin (0.04 μM) [1, 12]: 1.121
- Complete Media [1, 13]: 1.021
- Difference [1, 11]: −0.10
- Cholesterol-free [2, 7]: 1.049
- Difference [2, 28]: 0.13
